This data set relates to Col1α2 mRNA expression in rat skin. The data set is described as follows: Col1α2 mRNA expression in rat model of skin fibrosis and wounding, intradermal treatment (Example 9). Format: in vivo. An excerpt:
Scar and fibrotic tissues are mainly composed of collagen, especially collagen1α2 (Col1α2). Therefore, the expression of Col1α2 can be used as a marker for the severity of scarring, especially in skin. We have evaluated the ability of a TGF-beta1 ASO to suppress the expression of Col1α2 in rat skin subsequent to full-thickness skin wounding, an injury that typically leads to a 4-6 fold induction in Col1α2 expression.
On Day 1 of the study, a 0.8 centimeter biopsy punch was used to create full-thickness wounds on the back of anesthetized adult hairless rats. Two biopsies were performed on each rat's back; one in the lower left quadrant, and one in the upper right quadrant. The wounds were left open, but dressed with a sterile occlusive bandage, which were left in place for 24 hours.
Biopsy sites were treated intradermally with PBS (vehicle) or a 3 mg dose of a rat specific TGF-beta1 antisense oligonucleotide (Oligo ID 433849; SEQ ID NO. 166) on Days 1, 5, 9, and 13 post-biopsy. Animals were sacrificed on Day 14 post-biopsy. […]
A subset of the excised skin from each initial biopsy site was retained and prepared for Col1α2 mRNA expression (by RT-PCR). […] On day 15, animals were euthanized, a sample of skin from the center of the wound was obtained with a 0.5 cm biopsy punch, and Col1α2 mRNA expression determined.

Regarding “433849 (antisense GTCCTTAAATACAGCCCCGG; listed as DNA, chemistry not given here) [compound 433849]”, where the note is “3 mg intradermally on Days 1, 5, 9, 13 post-biopsy, day 14 after skin wounding”, the “expression of Col1α2 in rat skin” value is recorded as “significantly reduced”. Also, for the setting “hairless rats, full-thickness skin wound, 3 mg intradermal on Days 1, 5, 9, 13, day 14 after skin wounding”, the “% Col1α2 mRNA compared to the unwounded control” value is on record as 83%.

The values are drawn from patent US20110172296A1, “MODULATION OF TRANSFORMING GROWTH FACTOR-BETA 1 EXPRESSION” (priority 2010, published 2011).
